These results are taken from PubChem BioAssay (NCI).

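1) Cells in 96-well plates. 2) Compound, 48 h, 5 concentrations. 3) Linear interpolation between surrounding doses. 4) Unreached endpoint = highest concentration. TGI marks complete inhibition of growth.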 Some results are limits rather than exact numbers.

Test systems include NCI-H522 lung; CCRF-CEM leukemia; DLD-1 colon; CAKI-1 renal; A549 NSCLC; UO-31 renal; HOP-92 NSCLC; HOP-18 NSCLC; P388 leukemia; IGROV1 ovarian; OVCAR-8 ovarian; NCI/ADR-RES ovarian; SK-MEL-28 melanoma; MCF7 breast; MDA-MB-231 breast; TK-10 renal; PC-3 prostate; DU-145 prostate; ACHN renal; LXFL 529 NSCLC.
Holding throughout (assay): NCI tumour cell line growth inhibition, 48 h

Turning to `C[C@H](N)C(=O)N[C@@H]1[C@H]2C(=C(O)C[C@@H](O)[C@@H]2O)C(=O)O[C@@H]1C`, the TGI in the test with NCI-H522 lung, with CCRF-CEM leukemia, with DLD-1 colon, with CAKI-1 renal, with A549 NSCLC and with UO-31 renal was > 100 µM each time. In addition, the TGI in the test with HOP-92 NSCLC, in the test on HOP-18 NSCLC, with P388 leukemia, with IGROV1 ovarian, in the test on OVCAR-8 ovarian and with NCI/ADR-RES ovarian was > 100 µM throughout. Moreover, the TGI in the test on SK-MEL-28 melanoma and with MCF7 breast was > 100 µM each time.

Turning to `CCOC(=O)C1=NN(c2ccc(Cl)cc2)C2=CC(C)=NN(C)C(=S)N21`, the TGI in the test on NCI-H522 lung was 46.9 µM; with CCRF-CEM leukemia, > 100 µM; in the test with MDA-MB-231 breast it was > 100 µM; in the test with TK-10 renal, 62 µM; in the test with PC-3 prostate, > 100 µM; in the test with DU-145 prostate, > 100 µM. In addition, the TGI in the test on CAKI-1 renal was 50.4 µM; in the test with A549 NSCLC it was > 100 µM; in the test on UO-31 renal, > 100 µM; with HOP-92 NSCLC, > 100 µM; in the test on ACHN renal it was > 100 µM; in the test with IGROV1 ovarian, > 100 µM. In addition, the TGI with OVCAR-8 ovarian, in the test on NCI/ADR-RES ovarian and with SK-MEL-28 melanoma was > 100 µM each time.

Turning to `COc1ccc(/C=N/n2cnc3c(c2=O)S/C(=C2/SC(=S)N(c4ccc(C)cc4)C2=O)N3c2ccccc2)cc1`, the TGI in the test on NCI-H522 lung is > 100 µM; in the test with CCRF-CEM leukemia, > 100 µM; in the test on TK-10 renal, > 100 µM; with CAKI-1 renal it was > 10 µM; in the test on A549 NSCLC, > 100 µM; in the test on UO-31 renal, > 100 µM. Further, the TGI in the test on LXFL 529 NSCLC, in the test on HOP-92 NSCLC, in the test on ACHN renal, with IGROV1 ovarian, with OVCAR-8 ovarian and in the test with SK-MEL-28 melanoma was > 100 µM in each case.

As for `COc1ccc(/C(Cl)=C(\C=O)c2ccccc2)cc1OC`, the TGI with NCI-H522 lung was 30.8 µM; in the test on CCRF-CEM leukemia, > 100 µM; in the test on DLD-1 colon it was > 100 µM; with TK-10 renal, > 100 µM; with CAKI-1 renal, > 100 µM; in the test on A549 NSCLC it was > 100 µM. In addition, the TGI with UO-31 renal is > 100 µM; with LXFL 529 NSCLC, 55.1 µM; with HOP-18 NSCLC, > 100 µM; in the test on ACHN renal it was > 100 µM; in the test with IGROV1 ovarian, > 100 µM; with OVCAR-8 ovarian, > 100 µM.
